This passage reports IC50 results from US10005767B2, “Compositions and methods for inhibition of the JAK pathway” (Rigel Pharmaceuticals, Inc., priority 2009, dated 2018).

Where a name gives a salt, the structure may show the parent alone.

Usually IC50 stands for the point on the concentration scale where inhibition reaches its midpoint.

One assay concerns human primary T-cells, IL-2 stimulated proliferation (JAK-1 and JAK-3 dependent; reported as JAK3 activity). The experiment in a line: Human primary T-cell proliferation stimulated by IL-2 (Example 3). It counts as cell-based. Particulars: Homo sapiens, T-cell, tested under conditions described in Example 3 (IL-2 stimulated human primary T-cell proliferation); read-out: ability to inhibit JAK3 activity, IC50 range (Table V). The method, boiled down:
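Peripheral-blood human T-cells pre-activated via TCR/CD28, IL-2-starved overnight, then cultured 72 h at 37 °C with compound in Yssel's medium containing IL-2 (80 U/mL in cell suspension). Proliferation read as viable-cell ATP by CellTiter-Glo luminescence; reduction versus control taken as JAK pathway inhibition.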
In the case of `Cc1cnc(Nc2cnc(N3C[C@@H]4C[C@H]3CN4C)c(C(F)(F)F)c2)nc1Nc1ccc2oc(=O)[nH]c2c1` [II-109, N4-(benzo[d]oxazolin-2(3H)-one-5-yl)-5-methyl-N2-[2-((1S,4S)-5-methyl-2,5-diazabicyclo[2.2.1]heptan-2-yl)-3-trifluoromethylpyridine-5-yl]-2,4-pyrimidinediamine], the IC50 was below 500 nM.
On the same count and under the same terms, in the case of `Cc1cnc(Nc2ccc3c(c2)CN(C(=O)C(C)(C)C)C3)nc1N(C(=O)C(C)(C)C)c1ccc2oc(=O)n(C(=O)C(C)(C)C)c2c1` [III-13, N-{2-[2-(2,2-Dimethyl-propionyl)-2,3-dihydro-1H-isoindol-5-ylamino]-5-methyl-pyrimidin-4-yl}-N-[3-(2,2-dimethyl-propionyl)-2-oxo-2,3-dihydro-benzooxazol-5-yl]-2,2-dimethyl-propionamide] it was below 500 nM.
Same read-out and setting: to `Cc1cnc(Nc2cnc(N3CC4CN(CC5CC5)CC4C3)c(F)c2)nc1Nc1ccc2oc(=O)[nH]c2c1` (centres unmarked) [II-52, 5-{2-[6-(5-Cyclopropylmethyl-hexahydro-pyrrolo[3,4-c]pyrrol-2-yl)-5-fluoro-pyridin-3-ylamino]-5-methyl-pyrimidin-4-ylamino}-3H-benzooxazol-2-one] belongs below 500 nM.
Same read-out and setting: to `Cc1cnc(Nc2cccc(C(C)NC(C)C)c2)nc1Nc1ccc2oc(=O)[nH]c2c1` (centres unmarked) [Compound I-209, 5-(2-(3-(1-(isopropylamino)ethyl)phenylamino)-5-methylpyrimidin-4-ylamino)benzo[d]oxazol-2(3H)-one] belongs below 500 nM; to `Cc1ccc(Nc2ncc(C)c(Nc3ccc4oc(=O)[nH]c4c3)n2)nc1` [IV-52, 5-(5-methyl-2-(5-methylpyridin-2-ylamino)pyrimidin-4-ylamino)benzo[d]oxazol-2(3H)-one], 500 to 5000 nM; to `O=c1[nH]c2cc(Nc3nc(Nc4ccc(OC(F)(F)F)cc4)ncc3F)ccc2o1` [Compound I-109, N4-(benzoxazolin-2-on-5-yl)-N2-(4-trifluoromethoxyphenyl)-5-fluoropyrimidine-2,4-diamine trifluoroacetate salt], below 500 nM.
In the case of `Cc1ccc(Nc2ncc(C)c(Nc3ccc4oc(=O)[nH]c4c3)n2)cc1CF` [Compound I-439, 5-(2-(3-(fluoromethyl)-4-methylphenylamino)-5-methylpyrimidin-4-ylamino)benzo[d]oxazol-2(3H)-one], the IC50 is below 500 nM.
Same read-out and setting: in the case of `Cc1cnc(Nc2ccc(C(=O)N(C)C)cc2)nc1Nc1ccc2oc(=O)[nH]c2c1` [Compound I-132, N,N-Dimethyl-4-[5-methyl-4-(2-oxo-2,3-dihydro-benzooxazol-5-ylamino)-pyrimidin-2-ylamino]-benzamide] it was below 500 nM; in that of `Cc1cnc(Nc2ccc(C(=O)O)cc2)nc1Nc1ccc2oc(=O)[nH]c2c1` [Compound I-126, 4-[5-Methyl-4-(2-oxo-2,3-dihydro-benzooxazol-5-ylamino)-pyrimidin-2-ylamino]-benzoic acid], below 500 nM.
On to `Cc1cnc(Nc2cccc(C)c2C)nc1Nc1ccc2oc(=O)[nH]c2c1` [Compound I-500, 5-(2-(2,3-dimethylphenylamino)-5-methylpyrimidin-4-ylamino)benzo[d]oxazol-2(3H)-one], for which the IC50 is 500 to 5000 nM.
With `Cc1cnc(Nc2ccc3c(c2)CNC3)nc1Nc1ccc2oc(=O)[nH]c2c1` [III-1, N4-(benzo[d]oxazol-2(3H)-on-5-yl)-N2-(isoindolin-5-yl)-5-methylpyrimidine-2,4-diamine], the IC50 was below 500 nM.
For `Cc1cnc(Nc2ccc3c(c2)CN(S(C)(=O)=O)C3)nc1Nc1ccc2oc(=O)[nH]c2c1` [III-14, 5-[2-(2-Methanesulfonyl-2,3-dihydro-1H-isoindol-5-ylamino)-5-methyl-pyrimidin-4-ylamino]-3H-benzooxazol-2-one], the concentration for half-maximal inhibition (IC50) is below 500 nM.
On the same count and under the same terms, to `Cc1cnc(Nc2cc(F)c(F)cc2F)nc1Nc1ccc2oc(=O)[nH]c2c1` [Compound I-481, 5-[5-Methyl-2-(2,4,5-trifluoro-phenylamino)-pyrimidin-4-ylamino]-3H-benzooxazol-2-one] belongs below 500 nM; to `Cc1cnc(Nc2ccc3c(c2)CC(=O)N3C)nc1Nc1ccc2oc(=O)[nH]c2c1` [IV-27, 5-(5-methyl-2-(1-methyl-2-oxoindolin-5-ylamino)pyrimidin-4-ylamino)benzo[d]oxazol-2(3H)-one], below 500 nM.
`Cc1cnc(Nc2cnc(N3CCN(C)CC3)c(Cl)c2)nc1Nc1ccc2oc(=O)[nH]c2c1` [II-116, N2-[3-chloro-2-(4-methylpiperazino)pyridin-5-yl]-5-methyl-N4-(2-oxo-2,3-dihydro-1,3-benzoxazol-5-yl)-2,4-pyrimidinediamine]: the IC50 is below 500 nM.

Staying with this assay, now noted: tested under conditions described in Example 3 (IL-2 stimulated human primary T-cell proliferation); read-out: ability to inhibit JAK3 activity, IC50 range (Table V).
As to `Cc1cnc(Nc2cc(F)cc(OC(C)(C)C(N)=O)c2)nc1Nc1ccc2oc(=O)[nH]c2c1` [Compound I-402, N2-[3-(1-aminocarbonyl-1-methyl)ethoxy-5-fluoro]phenyl-5-methyl-N4-(2-oxo-2,3-dihydro-1,3-benzoxazol-5-yl)-2,4-pyrimidinediamine], the IC50 was below 500 nM.
On the same count and under the same terms, to `Cc1cnc(Nc2ccc(C(=O)NC3CCC3)cc2)nc1Nc1ccc2oc(=O)n(COP(=O)(OC(C)(C)C)OC(C)(C)C)c2c1` [Compound I-152, di-tert-butyl(5-(2-(4-(cyclobutylcarbamoyl)phenylamino)-5-methylpyrimidin-4-ylamino)-2-oxobenzo[d]oxazol-3(2H)-yl)methyl phosphate] belongs 500 to 5000 nM; to `Cc1cnc(Nc2ccc(N3CCOC(C)C3)nc2)nc1Nc1ccc2oc(=O)[nH]c2c1` (stereo not drawn) [II-138, 5-methyl-N2-[2-(2S-methylmorpholino)pyridin-5-yl]-N4-(2-oxo-2,3-dihydro-1,3-benzoxazol-5-yl)-2,4-pyrimidinediamine], below 500 nM; to `Cc1cnc(Nc2ccc(N3CCOCC3)cc2)nc1Nc1ccc2oc(=O)[nH]c2c1` [Compound I-338, 5-methyl-N2-(4-morpholino)phenyl-N4-(2-oxo-2,3-dihydro-1,3-benzoxazol-5-yl)-2,4-pyrimidinediamine], below 500 nM.
On the same count and under the same terms, to `Cc1cnc(Nc2ccc(N3CCN(C)CC3)nc2)nc1Nc1ccc2[nH]c(=O)[nH]c2c1` [II-15, N4-(benzimidazolin-2-on-5-yl)-N2-[2-(4-methylpiperazin-1-yl)pyridin-5-yl]-5-methylpyrimidine-2,4-diamine] belongs below 500 nM; to `Cc1cnc(Nc2ccc(CN3CCOCC3)cc2)nc1Nc1ccc2oc(=O)[nH]c2c1` [Compound I-382, 5-methyl-N2-(4-morpholinomethyl)phenyl-N4-(2-oxo-2,3-dihydro-1,3-benzoxazol-5-yl)-2,4-pyrimidinediamine], below 500 nM; to `Cc1cnc(Nc2ccc(OCC(N)=O)cc2)nc1Nc1ccc2oc(=O)[nH]c2c1` [Compound I-307, N2-(4-aminocarbonylmethoxy)phenyl-5-methyl-N4-(2-oxo-2,3-dihydro-1,3-benzoxazol-5-yl)-2,4-pyrimidinediamine], below 500 nM.
On the same count and under the same terms, to `Cn1c(=O)oc2cc(Nc3nc(Nc4ccc(NS(C)(=O)=O)cc4)ncc3F)ccc21` [Compound I-62, N2-((4-methylsulfonylamino)phenyl)-N4-(3-methyl-2-oxo-2,3-dihydrobenzo[d]oxazol-6-yl)-5-fluoropyrimidine-2,4-diamine] belongs 500 to 5000 nM.
